Experimental data reported in patent US20040152670A1, “Novel aminoindanes” (priority 1999, published 2004).
Like-named read-outs stand apart in the source and are kept apart here.

Experiments:
[1] = tested on: Group I metabotropic glutamate receptors (mGluRs); test: Phosphatidylinositol assay in neonatal rat tissue slices (inositol phosphate accumulation); assay type: cell-based, Sprague Dawley rat; settings: for EC50: inhibition of the inositol phosphate accumulation induced by ACPD, read-out: Group I Antagonist EC50; for Group I Agonist: increase in intracellular free inositol phosphate accumulation; for Group I Agonist / Group I Antagonist: Yes/No; for Group I Antagonist: inhibits the inositol phosphate accumulation induced by ACPD
Description: Briefly, cross-chopped slices are prepared from neonatal Sprague Dawley rat tissue (age: p7-p14). The slices are pre-labelled with [3H] myo-inositol. Following pre-labelling, the slices are incubated with the test drugs and standard (known Group I agonists i.e. ACPD) for a period of 45 minutes. The incubation is terminated by the addition of chloroform/methanol/HCl (100:200:2). The resulting mixture is separated into two phases by the addition of chloroform and distilled water. The aqueous fraction is applied to ion exchange columns, and inositol phosphates are eluted using 800 mM Ammonium Formate/100 mM Formic Acid. The eluent is then analyzed using liquid scintillation counting. The amount of inositol phosphate accumulation is expressed as a percentage of that induced by ACPD. Group I metabotropic glutamate receptors (mGluRs) are positively coupled on inositol phosphate metabolism. Agonists at these receptors lead to an increase in intracellular free inositol phosphates, while antagonists inhibit the increase in intracellular free inositol phosphate induced by standard agonists (i.e. ACPD). Cross-chopped slices were prepared from neonatal Sprague Dawley rat tissue (age: p7-p14). The slices were pre-labelled with [^3H] myo-inositol. Following pre-labelling, the slices were incubated with the test compounds and standard (known Group I agonists i.e. ACPD) for a period of 45 minutes. The incubation was terminated by the addition of chloroform/methanol/HCl (100:200:2). The resulting mixture was separated into two phases by the addition of chloroform and distilled water. The aqueous fraction was applied to ion exchange columns, and inositol phosphates were eluted using 800 mM Ammonium Formate/100 mM Formic Acid. The eluent was then analyzed using liquid scintillation counting. The amount of inositol phosphate accumulation was expressed as a percentage of that induced by ACPD. If the drugs cause an increase in intracellular free inositol phosphate accumulation, they are considered to be Group I agonists. […]

[2] = tested on: Group II/III metabotropic glutamate receptors (mGluRs); test: Cyclic AMP assay in rat cortical slices (forskolin-induced cyclic AMP accumulation); assay type: cell-based, Sprague Dawley rat; settings: for Group II/III Agonist: inhibits forskolin-induced cyclic AMP accumulation; for Group II/III Agonist / Group II/III Antagonist: Yes/No; for Group II/III Antagonist: inhibits the glutamate-caused decrease in forskolin-induced cyclic AMP accumulation
Description: The assay of cyclic AMP formation can be performed as described previously (Tovey el al., Clinica Chimica Acta, 56, 221-234, 1974). The assay can be modelled on the cyclic AMP assay kit available from Amersham, which in turn, is based on the assay created by Tovey el al. Briefly, samples are prepared from Sprague Dawley rat (225-250 g) cortical slices. Slices are incubated with the drug, and then challenged with forskolin to induce cyclic AMP release. Following termination of the reaction by boiling, the slices are homogenized and centrifuged. Samples of supernatant are then incubated for 2-3 hours with a known quantity of [^3H]cAMP and a binding protein. When the incubation is complete, the bound cyclic AMP is separated from the free cyclic AMP by centrifugation with charcoal. The resulting supernatant (containing free cyclic AMP) is then analyzed by liquid scintillation counting. The amount of unbound cyclic AMP can be calculated from a standard curve previously determined with various samples of free cyclic AMP. Group II/III metabotropic glutamate receptors (mGluRs) are negatively coupled to adenylate cyclase, and agonists of these receptors lead to a decrease in intracellular cyclic AMP accumulation. The assay has been modeled on the cyclic AMP assay kit available from Amersham. This kit, in turn, is based on the assay created by Tovey et al. (1974). Briefly, the samples were prepared from Sprague Dawley rat (225-250 g) cortical slices. Slices were incubated with the test compound (drug), and then challenged with forskolin to induce cyclic AMP release. Following termination of the reaction by boiling, the slices were homogenized and centrifuged. Samples of supernatant were then incubated for 2-3 hours with a known quantity of [^3H]cAMP and a binding protein. When the incubation was complete, the bound cyclic AMP was separated from the free cyclic AMP by centrifugation with charcoal. The resulting supernatant (containing free cyclic AMP) was then analyzed by liquid scintillation counting. The amount of unbound cyclic AMP was calculated from a standard curve previously determined with various samples of free cyclic AMP. If the drugs tested inhibit forskolin-induced cyclic AMP accumulation, they are considered to be Group II/III agonists. Conversely, if they inhibit the decrease in forskolin-induced cyclic AMP accumulation caused by glutamate, they are considered to be Group II/III antagonists.

mGluR1α receptor = target: T1, mGluR1α receptor (Rattus norvegicus, UniProt P23385); test: PI hydrolysis antagonist assay in Chinese hamster ovary cell lines expressing cloned mGluR1α; assay type: cell-based; settings: CHO cells expressing cloned mGluR1α; compound at 5 mM; 10 µM (L)-glutamic acid; FIG. 1
T1 construct: expressed in transfected cells; host or cells: Chinese hamster ovary (CHO) cells
Description: The Chinese hamster ovary cell lines expressing mGluR1α, mGlu R2 and mGluR4αreceptors have been described previously (Amarori and Nakanishi, Neuron 8, 757-765, 1992; Tanabe et al., Neuron 8, 169-179, 1992, and J. Neurochem. 63, 2038-2047, 1993). They are maintained at 37° C. in a humidified 5% CO2 incubator in Dubecco's Modified Eagle Medium (DMEM) containing a reduced concentration of(S)-glutamine (2 mM) and are supplemented with 1% proline, penicillin (100 U/mL), streptomycin ([…]) and 10% dialyzed fetal calf serum (all GIBCO, Paisley). Two days before assay 1.8×10^6 cells are evenly distributed into the wells of 24 well plates.
Phosphatidylinositol (PI) hydrolysis can be measured as described previously (Hayashi et al., Nature 366, 687-690,1992, and J. Neuroscience 14, 3370-3377, 1994). Briefly, the cells are labeled with [^3H]inositol (2 μCi/mL) 24 h prior to the assay. For agonist assays, the cells are incubated with test compound dissolved in phosphate-buffered saline (PBS)-LiC] for 20 min, and agonist activity is determined from the level of ^3H-labeled mono-, bis- and tris-inositol phosphates generated, as measured following ion-exchange chromatography, compared with the level generated in the absence of the test compound. […] The antagonist activity is then determined as the inhibitory effect of the (S)-Glu mediated response. […]

[3] = inhibition of the glutamate-caused decrease in forskolin-induced cyclic AMP accumulation, read-out: Group II/III Antagonist EC50
[4] = inhibition of forskolin-induced cyclic AMP accumulation, read-out: Group II/III Agonist EC50

T1 sequence (P23385 19-1199): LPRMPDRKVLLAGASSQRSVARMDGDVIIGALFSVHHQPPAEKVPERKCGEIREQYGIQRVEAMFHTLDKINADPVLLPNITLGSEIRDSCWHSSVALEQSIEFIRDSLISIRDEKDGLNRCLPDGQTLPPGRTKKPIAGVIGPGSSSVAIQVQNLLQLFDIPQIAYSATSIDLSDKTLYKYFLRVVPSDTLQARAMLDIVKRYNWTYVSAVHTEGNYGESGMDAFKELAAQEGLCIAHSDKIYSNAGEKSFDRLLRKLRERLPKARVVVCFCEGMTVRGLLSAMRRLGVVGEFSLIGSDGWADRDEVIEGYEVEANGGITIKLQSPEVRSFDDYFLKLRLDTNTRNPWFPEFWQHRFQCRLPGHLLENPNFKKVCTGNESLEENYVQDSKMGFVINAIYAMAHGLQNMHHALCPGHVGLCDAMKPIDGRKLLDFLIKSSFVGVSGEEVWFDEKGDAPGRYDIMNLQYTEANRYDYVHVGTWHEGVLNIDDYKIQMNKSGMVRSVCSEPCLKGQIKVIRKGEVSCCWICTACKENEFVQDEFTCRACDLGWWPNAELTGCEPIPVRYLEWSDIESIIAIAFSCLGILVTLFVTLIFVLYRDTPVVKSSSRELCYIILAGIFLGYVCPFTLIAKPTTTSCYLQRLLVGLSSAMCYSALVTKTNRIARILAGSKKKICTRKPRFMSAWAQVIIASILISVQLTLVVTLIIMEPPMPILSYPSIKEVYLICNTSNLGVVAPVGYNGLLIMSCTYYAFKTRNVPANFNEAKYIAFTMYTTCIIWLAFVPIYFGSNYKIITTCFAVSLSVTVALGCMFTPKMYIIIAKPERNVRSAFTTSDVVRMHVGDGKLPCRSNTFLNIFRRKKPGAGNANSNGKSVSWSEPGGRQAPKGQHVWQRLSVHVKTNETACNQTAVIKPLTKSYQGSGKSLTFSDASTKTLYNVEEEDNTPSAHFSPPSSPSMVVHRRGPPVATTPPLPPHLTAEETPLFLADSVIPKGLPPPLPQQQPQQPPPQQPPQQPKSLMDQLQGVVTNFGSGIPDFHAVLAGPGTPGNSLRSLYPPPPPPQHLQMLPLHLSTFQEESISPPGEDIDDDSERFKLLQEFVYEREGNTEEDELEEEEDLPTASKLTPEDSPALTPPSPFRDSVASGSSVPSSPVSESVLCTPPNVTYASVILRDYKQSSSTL

SMILES	EC50 [1] [nM]	EC50 [2, 3] [nM]	EC50 [2, 4] [nM]	Group I Agonist [1]	Group I Antagonist [1]	antagonist activity: block of the increase in PI hydrolysis by (L)-glutamic acid at the mGluR1α receptor (mGluR1α receptor)	Group II/III Agonist [2]	Group II/III Antagonist [2]
N[C@]1(C(=O)O)c2ccccc2C[C@H]1CC(=O)O (relative stereo) [Compound 9, Trans-1-amino-1-carboxyindane-2-acetic acid]	1100	34						
N[C@]1(C(=O)O)C[C@@H](CC(=O)O)c2ccccc21 (relative stereo) [Compound 13, Trans-1-amino-1-carboxyindane-3-acetic acid]	1.3		990					
N[C@@]1(C(=O)O)C[C@H](C(=O)O)c2ccccc21 (stereo in doubt) [Compound 4b, Cis-1-aminoindane-1,3-dicarboxylic acid]			2100					
N[C@]1(C(=O)O)C[C@H](C(=O)O)c2ccccc21 [Compound 4a, Trans-1-aminoaindane-1,3-dicarboxylic acid]	480			No	Yes	effectively blocked	No	No
NC(C(=O)O)C1c2ccccc2CC1CC(=O)O (centres unmarked) [Compound 18, 1-[2-amino]-2-indanediacetic acid]	14000	26	460	No	Yes		Yes	Yes
NC(C(=O)O)C1CC(C(=O)O)c2ccccc21 (centres unmarked) [Compound 23, 1-[2-amino]-3-carboxyindaneacetic acid]		610		No	No		No	Yes
